The source of these data is ChEMBL document CHEMBL4004877, “Synthesis and biological evaluation of chalcone, dihydrochalcone, and 1,3-diarylpropane analogs as anti-inflammatory agents” (Bioorg Med Chem Lett, 2017).

Data set [1] has as its system RAW264.7. Briefly: Antiinflammatory activity in mouse RAW264.7 cells assessed as inhibition of LPS induced iNOS-dependent nitric oxide production at 2.5 ug/ml after 24 hrs by Griess assay relative to control. It counts as functional. Particulars: RAW264.7, 24 h.
In data set [2] the test system is RAW264.7. Briefly: Antiinflammatory activity in mouse RAW264.7 cells assessed as inhibition of LPS induced iNOS-dependent nitric oxide production after 24 hrs by Griess assay. Particulars: RAW264.7, 24 h. It counts as functional, cell-based. For orientation: The Griess reaction detects nitrite, a stable product of nitric oxide.
The test system of data set [3] is RAW264.7. The data set is described as follows: Antiinflammatory activity in mouse RAW264.7 cells assessed as inhibition of LPS induced iNOS-dependent nitric oxide production at 10 ug/ml after 24 hrs by Griess assay relative to control. As to conditions: RAW264.7, 24 h. The class given is functional.
Data set [4] deals with RAW264.7. Briefly: Antiinflammatory activity in mouse RAW264.7 cells assessed as inhibition of LPS induced iNOS-dependent nitric oxide production at 1.25 ug/ml after 24 hrs by Griess assay relative to control. The class given is functional. As to conditions: RAW264.7, 24 h.
The nature of data set [5]: Cytotoxicity against LPS-stimulated mouse RAW264.7 cells assessed as cell viability at 10 ug/ml after 24 hrs by MTT assay relative to control. It counts as cell-based. As to conditions: LPS-stimulated RAW264.7 cells, read-out: Activity. Background: Formazan colour is commonly taken as a measure of viable cells.
Data set [6] concerns RAW264.7. The data set is described as follows: Antiinflammatory activity in mouse RAW264.7 cells assessed as inhibition of LPS induced iNOS-dependent nitric oxide production at 5 ug/ml after 24 hrs by Griess assay relative to control. As to conditions: RAW264.7, 24 h. It counts as functional.
Data set [7] in a line: Cytotoxicity against LPS-stimulated mouse RAW264.7 cells assessed as cell viability at 5 ug/ml after 24 hrs by MTT assay relative to control. Particulars: LPS-stimulated RAW264.7 cells, read-out: Activity. It counts as cell-based.
Data set [8] can be described thus: Cytotoxicity against LPS-stimulated mouse RAW264.7 cells assessed as cell viability at 2.5 ug/ml after 24 hrs by MTT assay relative to control. The class given is cell-based. As to conditions: LPS-stimulated RAW264.7 cells, read-out: Activity.
Data set [9] in a line: Cytotoxicity against LPS-stimulated mouse RAW264.7 cells assessed as cell viability at 1.25 ug/ml after 24 hrs by MTT assay relative to control. The class given is cell-based. As to conditions: LPS-stimulated RAW264.7 cells, read-out: Activity.

As a reminder, the inhibition is the relative decrease from the control value, in per cent. A word on the IC50: it is the concentration that inhibits the measured activity by half.

≈ marks a conversion by molar mass, not a printed value.

On to `COc1ccc(CCCc2ccc(OC)c(OC)c2)cc1OC`, for which the inhibition at 2.5 µg/mL with RAW264.7 [1] worked out at 12.7%. For the same molecule, the IC50 in the data set on RAW264.7 [2] is 9.47 µg/mL (≈ 29.9 µM). Besides, in the data set on RAW264.7 [3], the inhibition at 10 µg/mL was 52%. The inhibition at 1.25 µg/mL in the data set on RAW264.7 [4] came out at 8.4%. Moreover, in data set [5], the viability at 24 h, 10 ug/ml worked out at 94.9%. In addition, in the data set with RAW264.7 [6], the inhibition at 5 µg/mL is 26.1%. In addition, the viability at 24 h, 5 ug/ml in data set [7] was found to be 95.6%. For the same molecule, in data set [8], the viability at 24 h, 2.5 ug/ml turned out to be 97.4%. Further, the viability at 24 h, 1.25 ug/ml in data set [9] stood at 99%.

For `O=C(CCc1ccc2c(c1)OCO2)c1ccc(O)cc1`, the inhibition at 2.5 µg/mL with RAW264.7 [1] was determined as 19.8%. Further, the IC50 with RAW264.7 [2] turned out to be 8.72 µg/mL (≈ 32.3 µM). Moreover, the inhibition at 10 µg/mL with RAW264.7 [3] was found to be 56.2%. In addition, the inhibition at 1.25 µg/mL in the data set with RAW264.7 [4] turned out to be 2%. For the same molecule, the viability at 24 h, 10 ug/ml in data set [5] amounted to 82.9%. In addition, in the data set with RAW264.7 [6], the inhibition at 5 µg/mL stood at 24.8%. Further, the viability at 24 h, 5 ug/ml in data set [7] was found to be 87.3%. The viability at 24 h, 2.5 ug/ml in data set [8] was determined as 89%. Also, in [9], the viability at 24 h, 1.25 ug/ml worked out at 95.1%.

For the molecule `COc1cccc(/C=C/C(=O)c2cccc(O)c2)c1OC`, the inhibition at 2.5 µg/mL in the data set on RAW264.7 [1] worked out at 3%. Also, the IC50 in the data set with RAW264.7 [2] is 4.83 µg/mL (≈ 17 µM). For the same molecule, the inhibition at 10 µg/mL with RAW264.7 [3] worked out at 55.1%. In addition, in the data set with RAW264.7 [4], the inhibition at 1.25 µg/mL was found to be 1.8%. Moreover, the viability at 24 h, 10 ug/ml in [5] is 32.8%. Moreover, in the data set with RAW264.7 [6], the inhibition at 5 µg/mL was determined as 52.4%. Moreover, the viability at 24 h, 5 ug/ml in data set [7] is 57.8%. Further, the viability at 24 h, 2.5 ug/ml in [8] came to 70.8%. Further, in [9], the viability at 24 h, 1.25 ug/ml is 99.6%.

Consider `COc1ccc(C(=O)/C=C/c2ccc(OC)c(OC)c2)c(O)c1`, for which the inhibition at 2.5 µg/mL in the data set on RAW264.7 [1] is 3%. In addition, the IC50 in the data set with RAW264.7 [2] was determined as 5.05 µg/mL (≈ 16.1 µM). In the data set on RAW264.7 [3], the inhibition at 10 µg/mL amounted to 77.3%. Also, the inhibition at 1.25 µg/mL in the data set with RAW264.7 [4] is 9.1%. For the same molecule, the viability at 24 h, 10 ug/ml in data set [5] was 70%. The inhibition at 5 µg/mL in the data set with RAW264.7 [6] stood at 49.6%. The viability at 24 h, 5 ug/ml in data set [7] was found to be 73.9%. For the same molecule, the viability at 24 h, 2.5 ug/ml in data set [8] stood at 92.6%. Also, the viability at 24 h, 1.25 ug/ml in data set [9] was determined as 99.7%.

`COc1ccc(CCCc2cccc(OC)c2OC)c(O)c1`: the inhibition at 2.5 µg/mL in the data set with RAW264.7 [1] worked out at 30.3%. In addition, in the data set with RAW264.7 [2], the IC50 came out at 8.79 µg/mL (≈ 29.1 µM). For the same molecule, the inhibition at 10 µg/mL with RAW264.7 [3] worked out at 54.4%. Further, the inhibition at 1.25 µg/mL in the data set with RAW264.7 [4] stood at 21.5%. For the same molecule, the viability at 24 h, 10 ug/ml in [5] stood at 63%. In addition, in the data set with RAW264.7 [6], the inhibition at 5 µg/mL was 30.7%. For the same molecule, in data set [7], the viability at 24 h, 5 ug/ml amounted to 95.2%. The viability at 24 h, 2.5 ug/ml in data set [8] stood at 99%. In addition, the viability at 24 h, 1.25 ug/ml in data set [9] stood at 99.1%.

As for `COc1ccc(C(=O)CCc2cc(OC)ccc2OC)c(O)c1`, in the data set with RAW264.7 [1], the inhibition at 2.5 µg/mL came out at 8.2%. Moreover, the IC50 in the data set on RAW264.7 [2] is greater than 10 µg/mL. Further, the inhibition at 10 µg/mL in the data set with RAW264.7 [3] was found to be 14%. The inhibition at 1.25 µg/mL in the data set with RAW264.7 [4] came to 6.6%. Besides, the viability at 24 h, 10 ug/ml in data set [5] was 92.4%. In addition, the inhibition at 5 µg/mL in the data set with RAW264.7 [6] came to 11.9%. In addition, in data set [7], the viability at 24 h, 5 ug/ml was 91.1%. For the same molecule, the viability at 24 h, 2.5 ug/ml in data set [8] amounted to 96.2%. The viability at 24 h, 1.25 ug/ml in [9] was determined as 96.4%.

As to `COc1ccc(CCCc2ccc(OC)c(OC)c2)cc1O`, the inhibition at 2.5 µg/mL in the data set on RAW264.7 [1] was found to be 36.3%. In addition, the IC50 with RAW264.7 [2] was 3.92 µg/mL (≈ 13 µM). In the data set on RAW264.7 [3], the inhibition at 10 µg/mL turned out to be 83.6%. The inhibition at 1.25 µg/mL in the data set with RAW264.7 [4] was found to be 32.4%. For the same molecule, in data set [5], the viability at 24 h, 10 ug/ml was determined as 51.9%. Further, in the data set with RAW264.7 [6], the inhibition at 5 µg/mL was determined as 57.4%. Also, the viability at 24 h, 5 ug/ml in [7] came to 86.2%. The viability at 24 h, 2.5 ug/ml in [8] was 95.5%. Besides, the viability at 24 h, 1.25 ug/ml in [9] was found to be 98%.

For `COc1ccc(CCC(=O)c2cccc(O)c2)c(OC)c1`, in the data set with RAW264.7 [1], the inhibition at 2.5 µg/mL was 17.1%. Besides, in the data set with RAW264.7 [2], the IC50 turned out to be 9.42 µg/mL (≈ 32.9 µM). Also, the inhibition at 10 µg/mL with RAW264.7 [3] amounted to 52.3%. Also, the inhibition at 1.25 µg/mL in the data set with RAW264.7 [4] is 7.9%. Moreover, in [5], the viability at 24 h, 10 ug/ml came out at 74.8%. The inhibition at 5 µg/mL in the data set with RAW264.7 [6] turned out to be 25.4%. Also, in data set [7], the viability at 24 h, 5 ug/ml came to 88.8%. The viability at 24 h, 2.5 ug/ml in data set [8] was determined as 88.5%. Moreover, the viability at 24 h, 1.25 ug/ml in data set [9] amounted to 92.1%.

With `COc1ccc(C(=O)CCc2ccc(OC)cc2OC)c(O)c1`, in the data set on RAW264.7 [1], the inhibition at 2.5 µg/mL is 3.4%. The IC50 in the data set on RAW264.7 [2] was greater than 10 µg/mL. Moreover, the inhibition at 10 µg/mL in the data set on RAW264.7 [3] is 21.6%. Besides, the inhibition at 1.25 µg/mL with RAW264.7 [4] worked out at 3%. For the same molecule, the viability at 24 h, 10 ug/ml in data set [5] stood at 83.4%. Besides, the inhibition at 5 µg/mL in the data set on RAW264.7 [6] came out at 9%. The viability at 24 h, 5 ug/ml in data set [7] came out at 87.4%. For the same molecule, the viability at 24 h, 2.5 ug/ml in [8] was determined as 96.2%. For the same molecule, the viability at 24 h, 1.25 ug/ml in data set [9] was determined as 97.8%.

For the molecule `COc1ccc(/C=C/C(=O)c2ccc(OC)c(OC)c2)cc1OC`, the inhibition at 2.5 µg/mL in the data set with RAW264.7 [1] was 1.7%. Moreover, the IC50 in the data set with RAW264.7 [2] is greater than 10 µg/mL. In addition, in the data set on RAW264.7 [3], the inhibition at 10 µg/mL came out at 3.3%. For the same molecule, the inhibition at 1.25 µg/mL with RAW264.7 [4] was 0.2%. Also, the viability at 24 h, 10 ug/ml in data set [5] was 60.4%. Moreover, the inhibition at 5 µg/mL in the data set with RAW264.7 [6] was determined as 2%. The viability at 24 h, 5 ug/ml in data set [7] came to 81.3%. In addition, in data set [8], the viability at 24 h, 2.5 ug/ml is 91.9%. In addition, the viability at 24 h, 1.25 ug/ml in data set [9] was found to be 94%.
